Test [1] relates to planktonic Candida auris cells. As to the kind of experiment: Growth of planktonic C. auris cells (OD600). The note with it: one dose, PAO1 D-EVs 0.25 μg/μl, E. coli D-EVs 0.15 μg/μl, YPD broth. The class given is cell-based. As to the method: (§1) FIGS. 16A-16H summarize the EV bacterial protocol adapted for a fungal pathogen, C. auris. […] Fungal cell growth was monitored by measuring the OD600 of the cell culture. […] FIG. 16D illustrates the overall cellular levels of ROS radicals (including ·O2^− and ·OH) of C. auris in YPD broth culture in response to bacterial D-EV treatments. After 24 hr. of growth, C. auris cell culture (OD600=0.5) was mixed with a Cellular ROS Assay Kit (ab186027) and further incubated for 1 hr. Then, one dose of D-EVs extracted from either PAO1 (0.25 μg/μl) or E. coli (0.15 μg/μl) was added, followed by immediate monitoring of changes in fluorescence intensity (n=4). […] H2O2 (20%) was used as a positive control to stimulate C. auris to produce ·OH species.
Candida auris (B11220, ATCC) frozen at −80° C. was activated in yeast peptone dextrose (YPD) broth overnight at 37° C. Cells were be maintained at 4° C. on YPD-agar plates. The in vitro C. auris biofilms were be prepared by first activating the cultures at 4° C. in YPD broth at 37° C., then transferring a volume of 2.5 μL (OD600˜0.5) onto sterile 13-mm polycarbonate membrane (WHA10417401, Sigma-Aldrich) on YPD-agar plates (FIG. 17). The plates were then incubated at 37° C. for 0 h, 24 h, 48 h, and 72 h, respectively, for the following experiments.

Another test has as its system C. auris. As to the kind of experiment: Cellular ROS assay in C. auris culture. In kind it is cell-based, Candida auris. The conditions noted are these: PAO1 D-EVs 0.25 μg/μl, E. coli D-EVs 0.15 μg/μl; ertapenem, tetracycline 2 mg/mL. As to the method:
as §1

The subject of test [2] is P. aeruginosa PAO1 biofilms. As to the kind of experiment: PAO1 colony biofilm growth, viable cell count (Log10 CFU/cm^2). The class given is cell-based. The note with it: for Effect of ferric ions alone on 96-h PAO1 biofilm growth (in words): 10, 25, 50 μM Fe^3+. As to the method: P. aeruginosa (PAO1) from a −80° C. freezer was streaked on tryptic soy agar (TSA, BD Difco™ Dehydrated Culture Media, DF0369-17-6) and incubated overnight at 37° C. The P. aeruginosa was maintained on TSA plates at 4° C. and an inoculum was prepared by transferring a touch from this plate into 10 mL of tryptic soy broth (BD Bacto™) and incubated overnight. Then, a volume of 100 μL (OD600=0.1) was used to seed 47-mm sterilized filter membranes (Membrane Solutions MCE Gridded Membrane Filter, Mixed Cellulose Esters Membrane Filter, Pore Size: 0.45 μm) on TSA petri dishes. The plates were incubated at either 37° C. or 33° C. At desired time points (0, 1, 2, 4, 8, 12, 16, 24, 32, 48, 72, 85, 96, and 120 h), the biofilm was suspended in 0.9% NaCl to prepare serial dilutions for colony forming unit (CFU) counting. The viable cell concentration (CFU/cm^2) was calculated according to the literature. All experiments were done under aseptic conditions. TSA and TSB were autoclaved at 121° C. and […] for 50 min/L.
To quantify the effects of G-EVs and D-EVs on the growth behavior of P. aeruginosa PAO1 biofilms, biofilms grown for 2 hr. (lag phase), 8 hr. (exponential phase), and 24 hr. (stationary phase) were tested. Briefly, an inoculum was prepared by transferring a touch from the P. aeruginosa PAO1-TSA plates into 10 ml of TSB and incubating the plates at 37° C. overnight. A volume of 2.5 μL (OD600˜0.5) was used to seed sterile 13-mm polycarbonate membranes (WHA10417401, Sigma-Aldrich) on TSA plates and incubated at 37° C. Biofilms grown for 2 hr. were treated with one dose of G-EVs (0.028 μg/μL) or D-EVs (0.33 μg/μL) and incubated at 37° C. for 24 hours. Biofilms grown for 8 hr. were treated with one dose of G-EVs (0.037 μg/μL) or D-EVs (0.33 μg/μL) and incubated at 37° C. for 24 hours. Three doses of D-EVs (0.33 μg/μL) were applied (one dose every 24 h) to biofilms grown for 24 h, and the plates were incubated at 37° C. Then viable cells were counted and reported as CFU/cm^2.
To test if the suppression of PAO1 biofilm growth is caused by D-EV-induced excessive iron uptake by D-EV recipient cells leading to the activation of bacterial cell death, the research team examined whether D-EV-induced excessive iron uptake could improve the poor efficacy of the D EVs against 96-h biofilms (FIG. 9D). […]
The viability of treated P. aeruginosa PAO1 biofilms was investigated and compared to control. P. aeruginosa PAO1 biofilms at 2 hr., 8 hr., 24 hr., 48 hr., and 96 hr. were individually treated with a one-dose of P. aeruginosa PAO1 D-EVs±iron (50 μM) and the biofilm inhibition was quantified in the term of log10 CFU·cm^−2.

The record followed here is patent US20250281548A1, “ANTIMICROBIAL COMPOSITIONS COMPRISING EXTRACELLULAR VESICLES AND METHODS THEREOF” (Washington State University, priority 2024, published 2025).

Regarding `OO` [H2O2 (30%), H2O2], the “C. auris growth (in words)” value in test [1] is “effectively inhibited fungal growth”.

Regarding `C[C@@H](O)[C@H]1C(=O)N2C(C(=O)O)=C(S[C@@H]3CN[C@H](C(=O)Nc4cccc(C(=O)O)c4)C3)[C@H](C)[C@H]12` [ertapenem], the “ROS production in C. auris (in words)” value with C. auris is reported as “No change in ROS production”.

For `[Fe+3]` [ferric ions], in test [2] (2, 8, 24, 48, 96 hr. biofilms, one dose D-EVs ± iron 50 μM, 24 hr. exposure), the “Growth of PAO1 biofilms at 2-96 hr. after one dose (in words)” value is on record as “increased”. Further, the “Effect of ferric ions alone on 96-h PAO1 biofilm growth (in words)” value in test [2] (96-h biofilms) was “marginally promoted biofilm growth”; in test [2] (96-h biofilms, listed as Ferric ions), “very minimal effect”. Besides, the “Growth of 96-h PAO1 biofilm with ferric ions alone” value in test [2] (96-h biofilms, ferric ions alone (10-50 μM), PBS control ~8.2) is 8.7 log10.
